Legend:
Format in all cases: cell-based
[1] = tested on: Ax 26 Corynebacterium sp.; assay: MIC microtiter plate test, axilla strain Ax 26; conditions: for Bacteriostatic activity Corynebact. Ax 26: Table 7, concentration for at least 80% reduction in growth during 24 hours; for Minimal inhibitory concentration (MIC) Ax 26: Table 1, growth inhibited by at least 80%, 24 h at 36° C.
From the text: (§1) The different bacterial strains had been isolated from the human axilla by current microbiological practice. They were taxonomically identified by cell morphology, gram-reaction, and biochemical tests included in the Api coryne test kit (BioMerieux, France). Strain Staphylococcus epidermidis Ax25 was identified by fatty acid methyl ester analysis (FAME; German type strain collection DSMZ, Germany). The strains were maintained on Tryptic soy […] plates, this standard medium being amended with 5 g per Liter of Tween 80 and 1 g of Soybean lecithin. Plates were incubated at 36° C. for a period 48 hours. The bacteria were then swabbed from the plates and suspended in 4 ml of Müller-Hinton broth amended with 100 mg of Tween 80 per Liter (MH-Tween) and incubated again at 36° C. for 16 hours. Following incubation the bacterial suspensions were diluted in MH-Tween to obtain a final cell density of 10^6 colony forming units per ml. For each fragrance material four microtiter plates were used in the example, each microtiter plate having 8 rows, A-H, and 12 columns, 1-12.
(§2) To each column a diluted suspension of a different test organism was distributed, 100 μl per well. 1% stock solutions of the fragrance materials were then prepared in MH-Tween broth. The fragrance material was dispersed by ultrasonication into the aqueous medium to obtain a homogenous emulsion. 100 μl per well of this emulsion was then added to the first row of the microtiter plates already containing the target organisms. Serial dilution series were then prepared starting at row A and continuing until row G, each time removing 100 μl from a well and transferring it to the next well. In this way fragrance concentrations of 0.5%, 0.25%, 0.125%, 0.0625%, 0.03125%, 0.0156%, and 0.0078% were tested for their antibacterial efficacy. The reference compound Triclosan was tested at 16-fold lower concentrations. The plates were covered with plastic films and incubated for 24 h at 36° C. with shaking at 250 rpm. The turbidity developing in the microtiter plates was then examined after 24 h to determine microbial growth. The minimal concentration of fragrance inhibiting the growth of an organism by at least 80% was determined as the minimal inhibitory concentration (MIC).
(§3) Ax 25 was identified as Staphylococcus. epidermidis by FAME analysis. Identification with the Api Coryne test kit yielded the following species assignments for the remainder of the strains: Ax 26 Corynebacterium sp.; Ax 3 Corynebacterium bovis; Ax 7 Corynebacterium group G; Ax 10 Corynebacterium jeikeium; Ax 11 Corynebacterium jeikeium; Ax 12 Corynebacterium jeikeium; Ax 15 Corynebacterium jeikeium; Ax 20 Corynebacterium striatum/amycolatum; and Ax 19 Corynebacterium jeikeium. The strains were isolated from the axilla of 8 human volunteers. Based on biochemical tests and colony morphology all strains were distinct from each other, even the several strains all belonging to Corynebacterium jeikeium.

Corynebacteria = assay: Activity against Corynebacteria; conditions: statement in words
From the text: With 2-methoxy-4-(5,5,6-trimethylbicyclo[2.2.1]hept-2-yl)cyclohexan-1-ol an outstanding activity is achieved.
as §1
To each column a diluted suspension of a different test organism was distributed, 100 μl per well. 1% stock solutions of the fragrance materials were then prepared in MH-Tween broth. […]

[2] = tested on: Staphylococcus epidermidis Ax25; assay: MIC microtiter plate test, axilla strain Ax 25; conditions: for Minimal inhibitory concentration (MIC) Ax 25: Table 1, growth inhibited by at least 80%, 24 h at 36° C.
From the text: as §1, §2, §3

[3] = tested on: Ax 10 Corynebacterium jeikeium; assay: MIC microtiter plate test, axilla strain Ax 10; conditions: Table 1; growth inhibited by at least 80%, 24 h at 36° C.
From the text: as §1
as §2, with “The minimal concentration of fragrance inhibiting the growth of an organism by at least 80% was determined as the minimal inhibitory concentration (MIC).” left out

[4] = tested on: Ax 20 Corynebacterium striatum/amycolatum; assay: MIC microtiter plate test, axilla strain Ax 20; conditions: Table 1; growth inhibited by at least 80%, 24 h at 36° C.
From the text: as §1
as §2, with “The minimal concentration of fragrance inhibiting the growth of an organism by at least 80% was determined as the minimal inhibitory concentration (MIC).” left out

[5] = tested on: Ax 7 Corynebacterium group G; assay: MIC microtiter plate test, axilla strain Ax 7; conditions: for Minimal inhibitory concentration (MIC) Ax 7: Table 1, growth inhibited by at least 80%, 24 h at 36° C.
From the text: as §1, §2, §3

[6] = tested on: Ax 12 Corynebacterium jeikeium; assay: MIC microtiter plate test, axilla strain Ax 12; conditions: Table 1; growth inhibited by at least 80%, 24 h at 36° C.
From the text: as §1
as §2, with “The minimal concentration of fragrance inhibiting the growth of an organism by at least 80% was determined as the minimal inhibitory concentration (MIC).” left out

[7] = tested on: Ax 3 Corynebacterium bovis; assay: MIC microtiter plate test, axilla strain Ax 3; conditions: Table 1; growth inhibited by at least 80%, 24 h at 36° C.
From the text: as §1
as §2, with “The minimal concentration of fragrance inhibiting the growth of an organism by at least 80% was determined as the minimal inhibitory concentration (MIC).” left out

[8] = tested on: Ax 11 Corynebacterium jeikeium; assay: MIC microtiter plate test, axilla strain Ax 11; conditions: Table 1; growth inhibited by at least 80%, 24 h at 36° C.
From the text: as §1
as §2, with “The minimal concentration of fragrance inhibiting the growth of an organism by at least 80% was determined as the minimal inhibitory concentration (MIC).” left out

[9] = tested on: Ax 15 Corynebacterium jeikeium; assay: MIC microtiter plate test, axilla strain Ax 15; conditions: for Minimal inhibitory concentration (MIC) Ax 15: Table 1, growth inhibited by at least 80%, 24 h at 36° C.
From the text: as §1, §2, §3

[10] = tested on: Ax 19 Corynebacterium jeikeium; assay: MIC microtiter plate test, axilla strain Ax 19; conditions: Table 1; growth inhibited by at least 80%, 24 h at 36° C.
From the text: as §1
To each column a diluted suspension of a different test organism was distributed, 100 μl per well. 1% stock solutions of the fragrance materials were then prepared in MH-Tween broth. The fragrance material was dispersed by ultrasonication into the aqueous medium to obtain a homogenous emulsion. […]

[11] = Table 7, concentration for at least 80% reduction in growth during 24 hours

SMILES | Bacteriostatic activity Corynebact. Ax 26 [1] | Minimal inhibitory concentration (MIC) Ax 25 [2] [% weight/volume] | Minimal inhibitory concentration (MIC) Ax 26 [1] [% weight/volume] | Minimal inhibitory concentration (MIC) Ax 10 [3] [% weight/volume] | Minimal inhibitory concentration (MIC) Ax 20 [4] [% weight/volume] | Minimal inhibitory concentration (MIC) Ax 7 [5] [% weight/volume] | Minimal inhibitory concentration (MIC) Ax 12 [6] [% weight/volume] | Minimal inhibitory concentration (MIC) Ax 3 [7] [% weight/volume] | Minimal inhibitory concentration (MIC) Ax 11 [8] [% weight/volume] | Minimal inhibitory concentration (MIC) Ax 15 [9] | further results
COC1CC(C2CC3CC2C(C)C3(C)C)CCC1O (single isomer, unassigned) [Peak B] | 0.0016 percent (w/v) |  |  |  |  |  |  |  |  |  | 
COC1CC(C2CC3CC2C(C)C3(C)C)CCC1O (centres unmarked) [2-methoxy-4-(5,5,6-trimethylbicyclo[2.2.1]hept-2-yl)cyclohexan-1-ol] |  |  |  |  |  |  |  |  |  |  | activity against Corynebacteria (Corynebacteria): highest activity
COC1CCC(C2CC3CC2C(C)C3(C)C)CC1O (centres unmarked) [2-methoxy-5-(5,5,6-trimethyl-bicyclo[2.2.1]hept-2-yl)cyclohexan-1-ol] |  |  |  |  |  |  |  |  |  |  | activity against Corynebacteria (Corynebacteria): highest activity
CC1=CCC(/C=C\C(C)C(C)O)C1(C)C (centres unmarked) [Ebanol] |  | 0.1250 | 0.1250 | 0.2500 | 0.1250 | 0.1250 | 0.2500 | 0.1250 | 0.2500 | 0.2500 % weight/volume | 
CC(C)=CCCC(C)=CCCC(C)=CCO [Farnesol, 3,7,11-trimethyl-2,6,10-dodecatrien-1-ol] | 0.0078 percent (w/v) |  | 0.0078 |  |  |  |  |  |  |  | 
CCC(=CCC1CC=C(C)C1(C)C)CO (centres unmarked) [Radjanol] |  | 0.1250 | 0.0625 |  |  | 0.0625 |  |  |  | 0.125. % weight/volume | 
CC1=CCC(CCC(C)C(C)O)C1(C)C (centres unmarked) [Sandalore] |  | 0.1250 | 0.1250 | 0.1250 | 0.1250 | 0.1250 | 0.1250 | 0.1250 | 0.1250 | 0.2500 % weight/volume | 
Oc1cc(Cl)ccc1Oc1ccc(Cl)cc1Cl [Triclosan, 2,4,4′-trichloro-2′-hydroxy-diphenyl-ether] | 0.0025 percent (w/v) | 0.000015 | 0.0015 | 0.0020 | 0.0107 | 0.0029 | 0.0017 | 0.0029 | 0.0029 | 0.0029 % weight/volume | Bacteriostatic activity S. epidermidis [2, 11]: 0.000015 percent (w/v); Bacteriostatic activity Corynebact. Ax 7 [5, 11]: 0.0025 percent (w/v); Bacteriostatic activity Corynebact. Ax 15 [9, 11]: 0.0030 percent (w/v); Minimal inhibitory concentration (MIC) Ax 19 [10]: 0.0039 % weight/volume

— patent US20050101678A1, “Antibacterial composition” (priority 2000, published 2005)
